{
  "source": "patent US20170281642A1",
  "about": "“METHODS OF TREATING ACUTE MYELOID LEUKEMIA OR ACUTE LYMPHOID LEUKEMIA USING PHARMACEUTICAL COMPOSITIONS CONTAINING THIENOTRIAZOLODIAZEPINE COMPOUNDS” (ONCOETHIX GmbH, priority 2014, published 2017)",
  "key": {"[1]": {"tested_on": "c-MYC", "assay": "c-MYC mRNA (quantitative RT-PCR) and protein (Western blotting) expression in acute leukemia cell lines", "assay_type": "cell-based", "conditions": "500 nM"}, "[2]": {"tested_on": "BRD2/3/4", "assay": "BRD2/3/4 expression in acute leukemia cell lines", "assay_type": "cell-based", "conditions": "500 nM, 48 h"}, "[3]": {"tested_on": "nine AML and four ALL cell lines", "assay": "cell viability, MTT assay", "assay_type": "cell-based", "procedure": "Cellular effects of compound (1-1) in various acute leukemia subtypes were evaluated. Cell viability after compound (1-1) exposure was evaluated with the MTT assay in nine AML and four ALL cell lines. Significant growth inhibition, defined as submicromolar IC50, was found in six of nine AML cell lines and all four ALL cell lines tested. The K562, KG1a and HL60 AML cell lines were resistant to compound (1-1)."}, "[4]": {"tested_on": "AML and ALL cell lines", "assay": "cell cycle analysis", "assay_type": "cell-based", "conditions": "500 nM, 48 h"}, "[5]": {"tested_on": "BRD2", "assay": "ex vivo BRD2 protein expression in primary AML samples", "assay_type": "cell-based, human", "conditions": "500 nM, 72 h; three primary AML samples"}, "[6]": {"tested_on": "BRD3", "assay": "BRD3 protein levels in acute leukemia cell lines", "assay_type": "cell-based", "conditions": "500 nM; all cell lines evaluated"}, "[7]": {"tested_on": "HEXIM1", "assay": "HEXIM1 mRNA and protein expression in acute leukemia cell lines", "assay_type": "cell-based"}, "[8]": {"tested_on": "caspase-3 and cytochrome c", "assay": "caspase-3 activation and cytochrome c release in cell lines", "assay_type": "cell-based", "conditions": "500 nM, 72 h", "procedure": "(§1) At 500 nM compound (1-1), 30-90% of cells were apoptotic in five of nine AML cell lines (HEL, NB4, NOMO-1, OCI-AML3, KASUMI) and 50-90% in two of four ALL cell lines (JURKAT and RS4-11; FIG. 14C)."}, "[9]": {"tested_on": "BRD2", "assay": "BRD2 protein expression in acute leukemia cell lines", "assay_type": "cell-based", "conditions": "500 nM; most cell lines (OCI-AML3, JURKAT, RS4-11, NB4, NOMO-1, HL60)"}, "[10]": {"tested_on": "AML and ALL cell lines", "assay": "apoptosis by Annexin V staining and PI uptake", "assay_type": "cell-based", "conditions": "72 h; for apoptotic cells: 500 nM", "procedure": "as §1"}, "[11]": {"tested_on": "BRD4", "assay": "BRD4 protein expression in acute leukemia cell lines", "assay_type": "cell-based", "conditions": "500 nM; only OCI-AML3, NB4 and K562 cell lines"}, "[12]": {"tested_on": "caspase-3 and cytochrome c", "assay": "ex vivo caspase-3 activation and mitochondrial cytochrome c release in AML patient samples", "assay_type": "cell-based, human", "conditions": "samples from three AML patients", "procedure": "(§2) Apoptosis, mRNA and protein expression were evaluated in BM mononuclear cells obtained from representative newly diagnosed or relapsed ALL and AML patients, see Table 7, treated in the context of an ongoing Phase Ib study with compound (1-1) and for whom sufficient material for analysis was available. Apoptosis induction by exposure to 500 nM compound (1-1) for 72 h was variable among the patient samples tested (FIG. 15A)."}, "[13]": {"tested_on": "BM mononuclear cells from ALL and AML patients", "assay": "ex vivo apoptosis in BM mononuclear cells of ALL and AML patients", "assay_type": "cell-based, human", "conditions": "500 nM, 72 h", "procedure": "as §2"}, "[14]": {"tested_on": "c-MYC", "assay": "ex vivo c-MYC mRNA and protein expression in patient samples", "assay_type": "cell-based, human", "conditions": "500 nM", "procedure": "as §2"}},
  "note": "“Also recorded” adds a separate entry of the source.",
  "data": [
    {"smiles": "Cc1sc2c(c1C)C(c1ccc(Cl)cc1)=N[C@@H](CC(=O)Nc1ccc(O)cc1)c1nnc(C)n1-2", "note": "[compound (1-1), 2-[(6S)-4-(4-chlorophenyl)-2,3,9-trimethyl-6H-thienol[3,2-f]-[1,2,4]triazolo[4,3-a][1,4]diazepin-6-yl]-N-(4-hydroxyphenyl)acetamide dihydrate]", "values": [
      {"measurement": "c-MYC protein levels", "setting": "[1]; 24-72 h, all cell lines evaluated other than KG1 (OCI-AML3, K562, NB4, NOMO-1, HL60, JURKAT, RS4-11), dihydrate", "value": "decreased to a variable extent; also recorded: Decreases"},
      {"measurement": "c-MYC gene expression", "setting": "[1]; 4 h and 24 h, same cell lines and KG1", "value": "decreased ubiquitously"},
      {"measurement": "c-MYC RNA levels", "setting": "[1]; 24 h, all AML and ALL cell lines (K562, HL-60, NB4, NOMO-1, KG1, OCI-AML3, JURKAT, RS4-11)", "value": "ubiquitously downregulated"},
      {"measurement": "BRD2, BRD3 and BRD4 mRNA expression", "setting": "[2]; HL60 and NOMO-1 cells", "value": "increased"},
      {"measurement": "BRD2, BRD3 and BRD4 mRNA expression", "setting": "[2]; K562 and NB4 cell lines", "value": "dramatically decreased"},
      {"measurement": "BRD2, BRD3 and BRD4 mRNA expression", "setting": "[2]; K562 cells", "value": "significantly decreased"},
      {"measurement": "BRD2, BRD3 and BRD4 mRNA expression", "setting": "[2]; KG1, OCI-AML3, JURKAT, BV-173 and RS4-11", "value": "mild variations"},
      {"measurement": "BRD2, BRD3 and BRD4 mRNA expression", "setting": "[2]; other cell lines (Example 7)", "value": "minimal to no increases"},
      {"measurement": "sensitivity to compound (1-1), MTT", "setting": "[3]; K562, KG1a and HL60 AML cell lines", "value": "resistant"},
      {"measurement": "IC50 (growth inhibition, MTT)", "setting": "[3]; six of nine AML cell lines and all four ALL cell lines", "value": "submicromolar"},
      {"measurement": "cells in the sub-G1 phase", "setting": "[4]; KG1a, KG1, HEL, KASUMI and JURKAT", "value": "significant increase"},
      {"measurement": "transition from G1 to S-phase", "setting": "[4]; all 13 cell lines", "value": "decreased"},
      {"measurement": "BRD2 protein expression", "setting": "[5]", "value": "clearly decreased"},
      {"measurement": "BRD3 protein levels", "setting": "[6]", "value": "unmodified"},
      {"measurement": "HEXIM1 mRNA expression", "setting": "[7]; 500 nM, 4 and 24 h, K562, HL-60, NB4, NOMO-1, KG1, OCI-AML3, JURKAT, RS4-11", "value": "increased"},
      {"measurement": "HEXIM1 protein levels", "setting": "[7]; 500 nM, 24-72 h, OCI-AML3, JURKAT and RS4-11 cell lines, dihydrate", "value": "Increases"},
      {"measurement": "HEXIM1 mRNA expression", "setting": "[7]; 500 nM, 24 h, all cell lines except K562", "value": "increased"},
      {"measurement": "HEXIM1 mRNA expression, increase", "setting": "[7]; 500 nM, 24 h, compound (1-1) resistant K562 cells", "value": "insignificant (less than twice)"},
      {"measurement": "HEXIM1 upregulation, rank among cell lines", "setting": "[7]; OCI-AML3 and RS4-11 cell lines", "value": "highest"},
      {"measurement": "caspase-3 activation", "setting": "[8]", "value": "activated"},
      {"measurement": "cytochrome c release", "setting": "[8]", "value": "induced"},
      {"measurement": "BRD2 protein expression", "setting": "[9]", "value": "decrease"},
      {"measurement": "apoptotic cells", "setting": "[10]; five of nine AML cell lines (HEL, NB4, NOMO-1, OCI-AML3, KASUMI)", "value": "30-90%"},
      {"measurement": "apoptotic cells", "setting": "[10]; two of four ALL cell lines (JURKAT and RS4-11)", "value": "50-90%"},
      {"measurement": "apoptosis (Annexin V staining and PI uptake)", "setting": "[10]; 25 to 500 nM", "value": "significant apoptosis"},
      {"measurement": "BRD4 protein expression", "setting": "[11]", "value": "decreased"},
      {"measurement": "activation of caspase-3", "setting": "[12]", "value": "induced activation"},
      {"measurement": "mitochondrial cytochrome c release", "setting": "[12]", "value": "induced"},
      {"measurement": "apoptosis", "setting": "[13]; 6 of 14 AML patients (4, 8, 9, 14, 16, 18)", "value": "no or a mild increase"},
      {"measurement": "increased apoptosis compared to control-treated cells", "setting": "[13]; BM cells from 8 of 14 AML patients (3, 15, 17, 26, 27, 28, 31, 38)", "value": "35-90%"},
      {"measurement": "apoptosis", "setting": "[13]; two ALL patients (40 and 43)", "value": "no or a mild increase"},
      {"measurement": "c-MYC mRNA expression", "setting": "[14]; 48 h, seven AML samples and two ALL samples", "value": "downregulated"},
      {"measurement": "c-MYC protein expression", "setting": "[14]; 72 h, three primary AML samples", "value": "clearly decreased"}
    ]}
  ]
}
